Results published in patent US9067922B2, “Chemical compounds” (Pfizer Limited, priority 2013, dated 2015).

Biological target: URAT-1 transporter (Homo sapiens (Human), UniProt Q96S37)
Experiment: URAT-1 inhibitor activity: [14C]-uric acid uptake in CHO-URAT1(L)GFP#8 (CHO#8) cells, scintillation proximity
Assay type: cell-based
Conditions: inhibition of [14C]-uric acid (30 nM) uptake into CHO#8 cells; compound 0 to 10 μM; 4 parameter logistic fit
Procedure, shortened: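 CHO cells stably expressing human URAT1 long isoform–eGFP fusion, pre-incubated 1 h in chloride-containing buffer pH 7.4, then given 30 nM [14C]-uric acid with compound (0–10 μM, 0.25% DMSO) in chloride-free gluconate buffer pH 7.4. Uptake measured by scintillation proximity on Cytostar plates.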

URAT-1 transporter, sequence (Q96S37 other isoform, or with tags, fused parts or gaps): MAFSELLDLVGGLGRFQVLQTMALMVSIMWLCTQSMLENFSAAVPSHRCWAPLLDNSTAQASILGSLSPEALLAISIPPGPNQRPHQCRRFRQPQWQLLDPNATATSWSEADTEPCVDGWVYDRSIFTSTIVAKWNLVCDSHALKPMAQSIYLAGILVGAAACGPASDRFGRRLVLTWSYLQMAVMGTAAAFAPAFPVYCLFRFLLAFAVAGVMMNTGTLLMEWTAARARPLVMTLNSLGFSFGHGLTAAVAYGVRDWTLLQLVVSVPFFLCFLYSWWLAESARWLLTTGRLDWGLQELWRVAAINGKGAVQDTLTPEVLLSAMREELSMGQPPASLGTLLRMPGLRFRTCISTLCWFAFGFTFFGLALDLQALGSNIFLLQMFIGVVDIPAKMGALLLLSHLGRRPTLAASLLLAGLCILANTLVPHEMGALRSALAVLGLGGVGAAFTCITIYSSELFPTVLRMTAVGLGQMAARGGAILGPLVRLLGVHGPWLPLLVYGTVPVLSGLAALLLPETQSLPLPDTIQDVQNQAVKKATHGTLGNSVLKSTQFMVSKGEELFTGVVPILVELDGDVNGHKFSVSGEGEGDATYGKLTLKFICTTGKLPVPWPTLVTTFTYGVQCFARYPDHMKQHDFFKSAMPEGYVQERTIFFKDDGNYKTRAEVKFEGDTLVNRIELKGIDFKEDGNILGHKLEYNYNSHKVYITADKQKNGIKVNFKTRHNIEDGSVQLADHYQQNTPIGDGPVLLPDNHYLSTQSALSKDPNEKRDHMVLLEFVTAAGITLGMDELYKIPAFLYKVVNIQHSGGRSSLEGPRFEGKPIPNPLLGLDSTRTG

| SMILES | IC50 [nM] |
| --- | --- |
| N#Cc1cc(S(=O)(=O)Nc2ccc(F)cn2)ccc1Oc1ccc(F)c(F)c1F [Example 157, 3-cyano-N-(5-fluoropyridin-2-yl)-4-(2,3,4-trifluorophenoxy)benzenesulfonamide] | 51 |
| Cc1cc(Cl)cc(Oc2ccc(S(=O)(=O)Nc3ccc(F)cn3)cc2C#N)c1C [Example 159, 4-(5-chloro-2,3-dimethylphenoxy)-3-cyano-N-(5-fluoropyridin-2-yl)benzenesulfonamide] | 514 |
| COc1cc(F)ccc1Oc1ccc(S(=O)(=O)Nc2ccc(F)cn2)cc1C#N [Example 160, 3-cyano-4-(4-fluoro-2-methoxyphenoxy)-N-(5-fluoropyridin-2-yl)benzenesulfonamide] | > 10000 |
| CC(C)(C)c1cc(Oc2ccc(S(=O)(=O)Nc3ccc(F)cn3)cc2C#N)ccc1C#N [Example 161, 4-(3-tert-butyl-4-cyanophenoxy)-3-cyano-N-(5-fluoropyridin-2-yl)benzenesulfonamide] | > 10000 |
| N#Cc1cc(S(=O)(=O)Nc2ccc(F)cn2)ccc1Oc1ccc(Br)cc1 [Example 163, 4-(4-bromophenoxy)-3-cyano-N-(5-fluoropyridin-2-yl)benzenesulfonamide] | > 10000 |
| CC(C)c1cc(Oc2ccc(S(=O)(=O)Nc3ccc(F)cn3)cc2C#N)ccc1Cl [Example 164, 4-[4-chloro-3-(propan-2-yl)phenoxy]-3-cyano-N-(5-fluoropyridin-2-yl)benzenesulfonamide] | 6160 |
| COc1c(F)ccc(Oc2ccc(S(=O)(=O)Nc3ccc(F)cn3)cc2C#N)c1C [Example 165, 3-cyano-4-(4-fluoro-3-methoxy-2-methylphenoxy)-N-(5-fluoropyridin-2-yl)benzenesulfonamide] | 139 |
| COc1ccc(F)c(Oc2ccc(S(=O)(=O)Nc3ccc(F)cn3)cc2C#N)c1 [Example 166, 3-cyano-4-(2-fluoro-5-methoxyphenoxy)-N-(5-fluoropyridin-2-yl)benzenesulfonamide] | 116 |
| COc1ccc(Oc2ccc(S(=O)(=O)Nc3ccc(F)cn3)cc2C#N)c(Cl)c1 [Example 168, 4-(2-chloro-4-methoxyphenoxy)-3-cyano-N-(5-fluoropyridin-2-yl)benzenesulfonamide] | 612 |
| Cc1ccc(Cl)c(C)c1Oc1ccc(S(=O)(=O)Nc2ccc(F)cn2)cc1C#N [Example 169, 4-(3-chloro-2,6-dimethylphenoxy)-3-cyano-N-(5-fluoropyridin-2-yl)benzenesulfonamide] | 134 |

Further compounds by falling IC50, results first:

| IC50 [nM] | SMILES |
| --- | --- |
| 570 | N#Cc1cc(S(=O)(=O)Nc2ccc(F)cn2)ccc1Oc1cc(Cl)ccc1Cl [Example 170, 3-cyano-4-(2,5-dichlorophenoxy)-N-(5-fluoropyridin-2-yl)benzenesulfonamide] |
| 502 | Cc1c(F)ccc(Oc2ccc(S(=O)(=O)Nc3ccc(F)cn3)cc2C#N)c1C [Example 172, 3-cyano-4-(4-fluoro-2,3-dimethylphenoxy)-N-(5-fluoropyridin-2-yl)benzenesulfonamide] |
| 215 | Cc1cc(Oc2ccc(S(=O)(=O)Nc3ccc(F)cn3)cc2C#N)cc(Cl)c1C [Example 171, 4-(3-chloro-4,5-dimethylphenoxy)-3-cyano-N-(5-fluoropyridin-2-yl)benzenesulfonamide] |
| 125 | COc1cc(Cl)cc(Oc2ccc(S(=O)(=O)Nc3ccc(F)cn3)cc2C#N)c1 [Example 162, 4-(3-chloro-5-methoxyphenoxy)-3-cyano-N-(5-fluoropyridin-2-yl)benzenesulfonamide] |
| 122 | Cc1ccc(C)c(Oc2ccc(S(=O)(=O)Nc3ccc(F)cn3)cc2C#N)c1 [Example 158, 3-cyano-4-(2,5-dimethylphenoxy)-N-(5-fluoropyridin-2-yl)benzenesulfonamide] |
| 50 | N#Cc1cc(S(=O)(=O)Nc2ccc(F)cn2)ccc1Oc1ccc(F)c(F)c1Cl [Example 167, 4-(2-chloro-3,4-difluorophenoxy)-3-cyano-N-(5-fluoropyridin-2-yl)benzenesulfonamide] |
